Target: T1, TDO2 (Homo sapiens, UniProt P48775)
T1 construct: decreased levels of NFK in SW48 cells (high TDO expressing cells)
Experiment: TDO2 cell assay (NFK GreenScreen, SW48 cells)
Format: cell-based
Settings: SW48 cells (high TDO expressing), 200 uM tryptophan, 24 hours; Table 3; read-out: TDO2 Cell Fluor EC50

T1 sequence (P48775 whole entry): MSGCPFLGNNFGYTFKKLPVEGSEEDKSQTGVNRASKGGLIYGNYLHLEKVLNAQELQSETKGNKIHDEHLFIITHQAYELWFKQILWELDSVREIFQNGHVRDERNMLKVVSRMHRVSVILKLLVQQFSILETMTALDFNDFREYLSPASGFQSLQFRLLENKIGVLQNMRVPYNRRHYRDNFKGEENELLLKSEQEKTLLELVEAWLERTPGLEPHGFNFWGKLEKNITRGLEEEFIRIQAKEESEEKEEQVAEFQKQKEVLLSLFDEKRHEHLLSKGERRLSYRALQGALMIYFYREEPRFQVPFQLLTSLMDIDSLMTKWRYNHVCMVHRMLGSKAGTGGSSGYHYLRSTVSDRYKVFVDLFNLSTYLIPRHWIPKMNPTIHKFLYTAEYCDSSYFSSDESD

Row | EC50 [nM] | SMILES
1 | > 25000 | OC1c2cncn2CCC1C1c2ccccc2-c2cncn21 (single isomer, unassigned) [Example 07f]
2 | 930 | NS(=O)(=O)N1CCC2(CC1)CC(C1c3ccccc3-c3cncn31)C2O (single isomer, unassigned) [Example 181g]
3 | 15000 | OC1COCC1C1c2ccc(F)cc2-c2cncn21 (single isomer, unassigned) [Example 30b]
4 | 1300 | N#Cc1ccc2c(c1)[C@H](O)[C@H]([C@@H]1c3ccccc3-c3cncn31)CC2 (stereo in doubt) [Example 113e, (7S,8R)-8-hydroxy-7-((R)-5H-imidazo[5,1-a]isoindol-5-yl)-5,6,7,8-tetrahydronaphthalene-2-carbonitrile]
5 | 3600 | CC1(C)OC(C)(C)C(C2c3ccccc3-c3cncn32)C1O (single isomer, unassigned) [Example 84d]
6 | 5000 | OC1C(C2c3ccccc3-c3cncn32)CC12CCOCC2 (single isomer, unassigned) [Example 57b]
7 | 2100 | CC(C)(C)OC(=O)N1CCC(C2c3ccccc3-c3cncn32)C(O)C1 (single isomer, unassigned) [Example 10a, tert-butyl 3-hydroxy-4-(5H-imidazo[5,1-a]isoindol-5-yl)piperidine-1-carboxylate]
8 | 2000 | OC1c2cncnc2CCC1C1c2ccccc2-c2cncn21 (single isomer, unassigned) [Example 94e]
9 | 19000 | CS(=O)(=O)c1ccc2c(c1)CCC(C1c3ccccc3-c3cncn31)C2O (single isomer, unassigned) [Example 36g]
10 | 2400 | OC1CC2(CCC2)C1C1c2ccccc2-c2cncn21 (single isomer, unassigned) [Example 67g]
11 | 540 | CS(=O)(=O)N1CCC2(CC1)CC(C1c3ccccc3-c3cncn31)C2O (single isomer, unassigned) [Example 179d]
12 | > 25000 | CC1(C)OCC(C2c3ccccc3-c3cncn32)C1O (single isomer, unassigned) [Example 85e]
13 | 92 | NS(=O)(=O)N1CCC2(CCC(C3c4ccccc4-c4cncn43)C2O)CC1 (single isomer, unassigned) [Example 182d]
14 | 760 | O[C@H]1c2ccnn2CC[C@H]1[C@H]1c2ccccc2-c2cncn21 [Example 56e, (4R,5S)-5-((S)-5H-imidazo[5,1-a]isoindol-5-yl)-4,5,6,7-tetrahydropyrazolo[1,5-a]pyridin-4-ol]
15 | 4000 | CNS(=O)(=O)N1CC[C@H]([C@H]2c3ccccc3-c3cncn32)[C@@H](O)C1 [Example 74a, (3R,4R)-3-hydroxy-4-((S)-5H-imidazo[5,1-a]isoindol-5-yl)-N-methylpiperidine-1-sulfonamide]
16 | 37 | CS(=O)(=O)c1ccc2c(c1)[C@@H](O)[C@H]([C@H]1c3ccccc3-c3cncn31)CC2 (single isomer, unassigned) [Example 142a]
17 | 340 | CC1(C)CCCC(C2c3ccccc3-c3cncn32)C1O (single isomer, unassigned) [Example 24g]
18 | 12000 | OC1c2cncnc2CCC1C1c2ccccc2-c2cncn21 (single isomer, unassigned) [Example 94f]
19 | 200 | NC(=O)c1ccc2c(n1)CCC(C1c3ccccc3-c3cncn31)C2O (single isomer, unassigned) [Example 104b]
20 | 19000 | O[C@H]1c2cnccc2CC[C@@H]1[C@@H]1c2ccccc2-c2cncn21 (single isomer, unassigned) [Example 04g]
21 | 860 | CN(C)C(=O)c1ccc2c(c1)CCC(C1c3ccccc3-c3cncn31)C2O (single isomer, unassigned) [Example 98g]

Row | EC50 [nM] | SMILES
22 | 510 | OC1CCCCC1C1c2ccc(F)cc2-c2cncn21 (single isomer, unassigned) [Example 25a]
23 | 810 | CS(=O)(=O)c1ccc2c(c1)OCC(C1c3ccccc3-c3cncn31)C2O (single isomer, unassigned) [Example 91f]
24 | 6800 | CS(=O)(=O)N1CCC2(CC1)CC(C1c3ccccc3-c3cncn31)C2O (single isomer, unassigned) [Example 179e]
25 | 82 | N#Cc1ccc2c(c1)CCC(C1c3ccccc3-c3cncn31)C2O (single isomer, unassigned) [Example 62d]
26 | > 25000 | CC(=O)N1CCC(C2c3ccccc3-c3cncn32)C(O)C1 (single isomer, unassigned) [Example 09d, 1-(3-hydroxy-4-(5H-imidazo[5,1-a]isoindol-5-yl)piperidin-1-yl)ethan-1-one]
27 | > 25000 | CC1(C)CCCC(C)(C2c3ccccc3-c3cncn32)C1O (single isomer, unassigned) [Example 90a]
28 | 16000 | OC1CCC1C1c2ccccc2-c2cncn21 (single isomer, unassigned) [Example 01h]
29 | 1200 | CCS(=O)(=O)N1CCC2(CC1)CC(C1c3ccccc3-c3cncn31)C2O (single isomer, unassigned) [Example 114e]
30 | > 25000 | CC(C)(C)OC(=O)N1CCC(C2c3ccccc3-c3cncn32)C(O)C1 (single isomer, unassigned) [Example 10d, tert-butyl 3-hydroxy-4-(5H-imidazo[5,1-a]isoindol-5-yl)piperidine-1-carboxylate]
31 | 9500 | OC1C(C2c3ccc(F)cc3-c3cncn32)CC12CCOCC2 (single isomer, unassigned) [Example 109e]
32 | 20000 | N#CCN1CCC(O)C(C2c3ccccc3-c3cncn32)C1 (single isomer, unassigned) [Example 58c]
33 | 6100 | CS(=O)(=O)c1ccc2c(c1)OCC(C1c3ccccc3-c3cncn31)C2O (single isomer, unassigned) [Example 91e]
34 | 19000 | OC1c2ccccc2CCC1C1c2ccccc2-c2cncn21 (single isomer, unassigned) [Example 102b]
35 | 40 | CC1(C)CCCCC1(O)C1c2ccccc2-c2cncn21 (single isomer, unassigned) [Example 164a]
36 | 430 | OC1CCCC1C1c2ccc(F)cc2-c2cncn21 (single isomer, unassigned) [Example 20b]
37 | 2860 | OC1(C2c3ccccc3-c3cncn32)CCOCC1 (racemic) [Example 43, 4-(5H-imidazo[5,1-a]isoindol-5-yl)tetrahydro-2H-pyran-4-ol]
38 | 240 | OC1CC2(COC2)C1C1c2ccccc2-c2cncn21 (single isomer, unassigned) [Example 87g]
39 | 110 | OC1COCCC1C1c2cc(F)ccc2-c2cncn21 (single isomer, unassigned) [Example 75-1c]
40 | 57 | CC1(C)CCCC(C2c3ccccc3-c3cncn32)C1O (single isomer, unassigned) [Example 24a]
41 | 1500 | Cn1cc2c(n1)CCC(C1c3ccccc3-c3cncn31)C2O (single isomer, unassigned) [Example 130a]
42 | > 25000 | NC(=O)C1([C@@H](O)[C@@H]2c3ccccc3-c3cncn32)CC1 [Example 165b, 1-((R)-hydroxy ((S)-5H-imidazo[5,1-a]isoindol-5-yl)methyl)cyclopropane-1-carboxamide]

Row | EC50 [nM] | SMILES
43 | 21000 | CC(C)(C(N)=O)C(O)C1c2ccccc2-c2cncn21 (single isomer, unassigned) [Example 155c]
44 | 14000 | CC(C)S(=O)(=O)N1CCC(C2c3ccccc3-c3cncn32)C(O)C1 (single isomer, unassigned) [Example 89a]
45 | 24000 | NC(=O)c1nc2c(s1)CCC(C1c3ccccc3-c3cncn31)C2O (single isomer, unassigned) [Example 149h]
46 | 12000 | CC1(C)CCCC(C2c3ccccc3-c3cncn32)C1O (single isomer, unassigned) [Example 24h]
47 | 4800 | CC1(C)COCC(C2c3ccccc3-c3cncn32)C1O (single isomer, unassigned) [Example 66c]
48 | 5800 | Cc1ccc2c(c1)-c1cncn1C2C1COCC1O (single isomer, unassigned) [Example 171c]
49 | 5500 | Cn1ncc2c1CCC(C1c3ccccc3-c3cncn31)C2O (single isomer, unassigned) [Example 93b]
50 | > 25000 | OC1c2cnncc2CCC1C1c2ccccc2-c2cncn21 (single isomer, unassigned) [Example 112a]
51 | 83 | O[C@@H]1c2ncccc2CC[C@H]1[C@H]1c2ccccc2-c2cncn21 (single isomer, unassigned) [Example 126b]
52 | 190 | NC(=O)c1nc2c(s1)CCC(C1c3ccccc3-c3cncn31)C2O (single isomer, unassigned) [Example 149a]
53 | > 25000 | O[C@@H]1[C@@H]([C@@H]2c3ccccc3-c3cncn32)CCCC1(F)F (single isomer, unassigned) [Example 106a]
54 | 1100 | CS(=O)(=O)N1CCC[C@](O)([C@@H]2c3ccccc3-c3cncn32)C1 [Example 134a, (R)-3-((S)-5H-imidazo[5,1-a]isoindol-5-yl)-1-(methylsulfonyl)piperidin-3-ol]
55 | 250 | CCS(=O)(=O)N1CCC2(CCC(C3c4ccccc4-c4cncn43)C2O)CC1 (single isomer, unassigned) [Example 76e]
56 | 520 | N#Cc1ccc2c(c1)CCC(C1c3ccccc3-c3cncn31)C2O (single isomer, unassigned) [Example 62e]
57 | 880 | O[C@@H](C1CCCCC1)[C@@H]1c2ccccc2-c2cncn21 (single isomer, unassigned) [Example 148c]
58 | 1440 | OCC(O)C1c2ccccc2-c2cncn21 (single isomer, unassigned) [Example 49d, 1-(5H-imidazo[5,1-a]isoindol-5-yl)ethane-1,2-diol]
59 | 150 | OC1CCCOCC1C1c2ccccc2-c2cncn21 (single isomer, unassigned) [Example 86f]
60 | 150 | O[C@H]1CC[C@H]1[C@H]1c2ccccc2-c2cncn21 [Example 01b, (1S,2S)-2-((S)-5H-imidazo[5,1-a]isoindol-5-yl)cyclobutan-1-ol]
61 | 4300 | Cn1ncc2c1CCC(C1c3ccccc3-c3cncn31)C2O (single isomer, unassigned) [Example 93e]

— patent US12583858B2 (Genentech, Inc., priority 2015, dated 2026)
